Source: patent publication US10251871B2, “Compositions and methods for treatment of edema” (Memorial Sloan Kettering Cancer Center, priority 2015, dated 2019)

Experiments:
[1] = system: mouse tail model of lymphedema; experiment: Mouse tail model of lymphedema (tail volume, histology, immunostaining, lymphoscintigraphy, NIR imaging, PCR, ELISA); format: in vivo, C57BL/6J mice
[2] = system: hind limb lymphatic ablation with DT; experiment: Hind limb lymphatic ablation with DT; format: in vivo, mouse
[3] = system: popliteal lymph node dissection (PLND) mouse model; experiment: Popliteal lymph node dissection (PLND) hind limb model of lymphatic injury
[4] = topical captopril 5% once daily, 6 weeks after tail lymphatic ablation, vs control
[5] = captopril after DT lymphatic ablation, ipsilateral limb vs ipsilateral control
[6] = topical captopril 5% once daily for 2 weeks after PLND, vs control
[7] = systemic pirfenidone, oral 400 mg/kg daily for 3 weeks from 7 weeks after surgery, vs control
[8] = systemic pirfenidone, vs control
[9] = topical pirfenidone 1 mg/ml daily for 3 weeks from 7 weeks after surgery, vs control
[10] = topical pirfenidone, vs control
[11] = systemic pirfenidone once daily for 2 weeks from 2 weeks after PLND, 4 weeks after PLND, vs vehicle
[12] = systemic pirfenidone, 4 weeks after PLND, vs control

Compound: C[C@H](CS)C(=O)N1CCC[C@H]1C(=O)O [captopril]
- ACE staining area [1, 4]: significant decrease
- LYVE-1+ lymphatic vessel area [1, 4]: significant decrease
- dermal type I collagen staining area [1, 4]: significant decrease
- number of lymphatic vessels (LYVE-1+) crossing the region of the tail wound [1, 4]: increases
- perilymphatic CD3+ cells/vessel [1, 4]: significant decrease
- perilymphatic F4/80 cells/vessel [1, 4]: significant decrease
- subcutaneous fibroadipose tissue deposition [1, 4]: significant decrease
- tail collecting vessel pumping (contraction) frequency ([1]; topical captopril ointment, 6 weeks after tail lymphatic ablation, vs control): increases
- LYVE-1+ lymphatic vessel area [2, 5]: significant decrease
- T cell (CD3+) infiltration in hind limb tissues [2, 5]: decreases
- hind limb angiotensin converting enzyme (ACE) expression [2, 5]: decreases
- hind limb collecting vessel smooth muscle (α-SMA) deposition [2, 5]: decreases
- hind limb lymphangiogenesis (LYVE-1+ lymphatic vessels) [2, 5]: decreases
- hind limb macrophage (F4/80+) infiltration [2, 5]: decreases
- hind limb type I collagen deposition [2, 5]: decreases
- formation of collateral lymphatics (ICG) ([2]; captopril after DT lymphatic ablation, vs control): increases
- foot swelling ([2]; captopril treatment after hind limb lymphatic ablation with DT, vs control): obvious decrease
- T cell (CD3+) infiltration in hind limb tissues [3, 6]: decreases
- hind limb collecting lymphatic pumping (packet frequency) [3, 6]: increases
- lymphangiogenesis (LYVE-1+ vessels) [3, 6]: increases
- macrophage (F4/80+) infiltration in hind limb tissues [3, 6]: decreases
- trafficking of dendritic cells (FITC+CD11c cells in inguinal lymph nodes) [3, 6]: increases
- lymphatic function ([3]; topical captopril 5% once daily for 2 weeks after PLND, vs vehicle): improved lymphatic function

Compound: Cc1ccc(=O)n(-c2ccccc2)c1 [pirfenidone]
- TGF-β1 protein accumulation (ELISA) ([1]; pirfenidone (FIG. 20I: systemic), vs control): decreased accumulation
- accumulation of IFN-γ protein (ELISA) ([1]; pirfenidone (FIG. 20J: systemic), vs control): significant decrease
- VEGF-C protein accumulation (ELISA) ([1]; pirfenidone (FIG. 20K: systemic), vs control): no difference
- numbers of infiltrating CD4+ cells ([1]; pirfenidone treatment (systemic and topical, FIG. 20A, 20D), vs control): marked decreases
- numbers of infiltrating CD3+ cells ([1]; pirfenidone treatment from 7 weeks after surgery, vs control): marked decreases
- lymphatic vessels density (LYVE-1) in the tail ([1]; pirfenidone, vs control): marked increase
- type I collagen around collecting lymphatics (α-SMA+/podoplanin+) ([1]; pirfenidone-treated animals vs control): essentially normal lymphatic vessels
- soft tissue thickness [1, 7]: markedly decreased
- tail volume [1, 7]: markedly decreased
- F4/80+ cellular infiltration in lymphedematous tail tissues [1, 8]: no difference
- accumulation of TGF-β1+ cells [1, 8]: markedly decreased
- accumulation of pSMAD3+ cells [1, 8]: markedly decreased
- dermal and subcutaneous type I collagen deposition [1, 8]: significantly decreased
- increase in decay-adjusted 99Tc uptake of the sacral lymph nodes [1, 8]: ~4 fold
- increase in peak nodal uptake of 99Tc [1, 8]: ~4 fold
- numbers of leukocytes infiltrating the dermis and subcutaneous fat [1, 8]: markedly decreased
- rate of 99Tc uptake (slope of decay-adjusted curve) [1, 8]: increased
- soft tissue thickness [1, 9]: markedly decreased
- tail volume [1, 9]: markedly decreased
- F4/80+ cellular infiltration in lymphedematous tail tissues [1, 10]: no difference
- accumulation of TGF-β1+ cells [1, 10]: markedly decreased
- accumulation of pSMAD3+ cells [1, 10]: markedly decreased
- dermal and subcutaneous type I collagen deposition [1, 10]: significantly decreased
- increase in decay-adjusted 99Tc uptake of the sacral lymph nodes [1, 10]: ~4 fold
- increase in peak nodal uptake of 99Tc [1, 10]: ~4 fold
- numbers of leukocytes infiltrating the dermis and subcutaneous fat [1, 10]: markedly decreased
- rate of 99Tc uptake (slope of decay-adjusted curve) [1, 10]: increased
- lymphatic vessels density (LYVE-1) in the hind limb ([3]; systemic pirfenidone once daily for 2 weeks from 2 weeks after PLND, 4 weeks after PLND, vs control): marked increase
- dermal backflow and capillary vessel leakage (NIR lymphangiography) [3, 11]: markedly less
- increase in rate of collecting lymphatic vessel contraction [3, 11]: 2 fold
- perilymphatic expression of iNOS by inflammatory cells [3, 12]: significant decrease
- perilymphatic infiltration of inflammatory cells (CD45+) [3, 12]: significant decrease

Compound: C/C(O)=C(\C#N)C(=O)Nc1ccc(C(F)(F)F)cc1 [teriflunomide]
- decrease in tail volume ([1]; topical teriflunomide 27 mg/ml once daily for 4 weeks from 2 weeks after surgery, 6 weeks after lymphatic ablation, vs vehicle): ~6 fold
- decrease in number of infiltrating CD4+ cells in tail tissues ([1]; topical teriflunomide 27 mg/ml, vs control): more than 8 fold
- increase in number of DCs trafficked to the inguinal lymph node (FITC painting) ([3]; topical teriflunomide 27 mg/ml after PLND, vs control): more than 5 fold
- increase in formation of collateral lymphatic vessels bypassing the zone of injury (ICG near infra-red imaging) ([3]; topical teriflunomide 27 mg/ml once daily for 2 weeks from 2 weeks after PLND, vs vehicle): 4.5 fold
